Consider 23 compounds from patent US12649735B2 (HAIHE BIOPHARMA CO., LTD., priority 2019, dated 2026).

In one experiment the test system is BRD4-BD2. Particulars: cited from earlier work.
The subject of another experiment is acute leukemia tumors. The conditions noted are these: mice, administered orally, 60 mg/kg per day; cited from earlier work.
Experiment [1] deals with T1, bromodomain protein BRD4 BD2 (Homo sapiens, UniProt O60885).
T1 construct: The proteins BRD4 BD1/BD2 used in the experiment were purchased from Active Motif Company (Cat. No. 31380/31446); purchased Active Motif 31446
Kind of experiment: HTRF in vitro assay, inhibitory activity against BRD4 BD2. Type of experiment: binding. The conditions noted are these: BRD4(2) 30 nM in final system. As to the method: (§1) The inhibitory activity of the compound against BRD4 BD1 was determined by using Homogeneous Time-Resolved Fluorescence (HTRF).
(§2) The proteins BRD4 BD1/BD2 used in the experiment were purchased from Active Motif Company (Cat. No. 31380/31446); Streptavidin XL-665 (#610SAXLA) and EPIgeneous Binding Domain Kit A (#62BDAPEG) were purchased from Cisbio Bioassays Company, [Lys(5,8,12,16)Ac]H4(1-21)-biotin (#64989), and [Lys(5,8,12,16)Ac]H4(1-25) were products of AnaSpec company; OTX015 and ABBV-075 were purchased from SelleckChem. 384 Well ProxiPlate (#6008280) was purchased from PerkinElmer. The multifunctional microplate reader used for the experimental was a product of PerkinElmer, model: Envision 2104. The experimental water was Millipore-Q pure water.
(§3) 10 mM of stock solution of compound in DMSO was diluted to 1 mM with DMSO and stored, and then diluted 10 times with Binding Domain dilution buffer (purchased from Cisbio Bioassays) for use (the concentration of DMSO in the final system was […]), 1:5 gradient dilution, a total of 5 concentrations.
(§4) 4. Test Method: 1 Batch, 2 Duplicate Wells
(§5) • 1) 5 μL of test compound was transferred to 45 μL of Binding Domain dilution buffer. • 2) 2 μL of 10× compound (4 μL Binding Domain dilution buffer: positive control; 6 μL enzyme buffer (purchased from Cisbio Bioassays): negative control) was transferred to the reaction plate. • 3) 4 μL of 5×BRD4(1) or BRD4(2) (30 nM in final system) was added to the reaction plate. • 4) 4 μL of 5×[Lys(5,8,12,16)Ac]H4(1-21)-biotin was added to the reaction plate, and the plate was covered with a film, and incubated at 37° C. for 30 min. • 5) A detection mixture of SA-XL665 (2×) and anti-H3K9me0-Eu(K) (2×) was prepared in detection buffer (purchased from Cisbio Bioassays). • 6) 10 μL of detection mixture (2×) was added to each well, and incubated for 3 h at room temperature, and the mp value was read using a multi-plate reader Envision. The parameters were set as follows.
On the technique in general: Time-resolved FRET reads energy transfer from a long-lived donor to a nearby acceptor.

Experiment [2] has as its target T2, bromodomain protein BRD4 BD1 (Homo sapiens, UniProt O60885).
T2 construct: The proteins BRD4 BD1/BD2 used in the experiment were purchased from Active Motif Company (Cat. No. 31380/31446); purchased Active Motif 31380
Kind of experiment: HTRF in vitro assay, inhibitory activity against BRD4 BD1. Type of experiment: binding. The conditions noted are these: BRD4(1) 30 nM in final system. The procedure:
In this example, the half inhibitory activity (IC50) of the compounds of the present invention against the bromodomain protein BRD4 BD1 was determined.
as §1, §2, §3, §4, §5

In the case of `CCNC(=O)c1cc2c(-c3cc(C(C)(C)O)ccc3Oc3c(C)cc(F)cc3C)cn(C)c(=O)c2[nH]1` [Abbv744], the “selectivity (BD2/BD1)” value in the experiment on BRD4-BD2 is given as over 100 times.

As to `Cc1noc2c1-c1ccccc1C(c1ccc(Cl)cc1)=N[C@H]2CC(N)=O` [CPI-0610], in the experiment with acute leukemia tumors, the “inhibits acute leukemia tumors” value is reported as 41%.

As for `CCNC(=O)c1cc2c(C(c3ccccc3)c3ccccc3O)cn(C)c(=O)c2[nH]1` (centres unmarked) [Compound A28], the values for the IC50 in experiment [1] and in experiment [2] were 10 to 100 nM and 100 to 1000 nM, respectively.

In the case of `CCNC(=O)c1cc2c(C(C)c3ccc4ccccc4c3)cn(C)c(=O)c2[nH]1` (centres unmarked) [Compound A22, N-ethyl-6-methyl-4-(1-(naphthalen-2-yl)ethyl)-7-oxo-6,7-dihydro-1H-pyrrolo[2,3-c]pyridin-2-carboxamide], the IC50 is 10 to 100 nM in experiment [1] and 100 to 1000 nM in experiment [2].

As for `Cc1nocc1-c1cc2c(C(C)c3ccccc3)cn(C)c(=O)c2[nH]1` (centres unmarked) [Compound A21], the IC50 fell in the range of 10 to 100 nM in experiment [1] and 100 to 1000 nM in experiment [2].

As to `CC(c1ccc(N2CCN(C)CC2)cc1)c1cn(C)c(=O)c2[nH]c(-c3cnn(C4COC4)c3)cc12` (centres unmarked) [Compound A63, 6-methyl-4-(1-(4-(4-methylpiperazin-1-yl)phenyl)ethyl)-2-(1-(oxetan-3-yl)-1H-pyrazol-4-yl)-1,6-dihydro-7H-pyrrolo[2,3-c]pyridin-7-one], the IC50 fell in the range of 10 to 100 nM in experiment [1] and 100 to 1000 nM in experiment [2].

Take `Cn1cc(C(CO)c2ccccc2)c2cc(-c3cnn(C4COC4)c3)[nH]c2c1=O` (centres unmarked) [Compound A67, 4-(2-hydroxy-1-phenethyl)-6-methyl-2-(1-(oxetan-3-yl)-1H-pyrazol-4-yl)-1,6-dihydro-7H-pyrrolo[2,3-c]pyridin-7-one]: the IC50 lay in the range of 10 to 100 nM in experiment [1] and 100 to 1000 nM in experiment [2].

Regarding `CCNC(=O)c1cc2c(C(C)c3ccccc3)cn(C)c(=O)c2[nH]1` (centres unmarked) [Compound A5, N-ethyl-6-methyl-7-oxo-4-(1-phenethyl)-6,7-dihydro-1H-pyrrolo[2,3-c]pyridin-2-carboxamide], the IC50 in experiment [1] is at most 10 nM; in experiment [2], 100 to 1000 nM.

As to `COC(c1ccccc1)c1cn(C)c(=O)c2[nH]c(-c3cnn(C)c3)cc12` (centres unmarked) [Compound A43, 4-(methoxy(phenyl)methyl)-6-methyl-2-(1-methyl-1H-pyrazol-4-yl)-1,6-dihydro-7H-pyrrolo[2,3-c]pyridin-7-one], the IC50 in experiment [1] was 10 to 100 nM; in experiment [2], 100 to 1000 nM.

Take `Cn1cc(-c2cc3c(C(O)c4ccccc4)cn(C)c(=O)c3[nH]2)cn1` (centres unmarked) [Compound A44]: the IC50 in experiment [1] lay in the range of 10 to 100 nM; in experiment [2] it was 100 to 1000 nM.

As for `CCNC(=O)c1cc2c(-c3nc4ncccc4n3-c3cc(C)c(F)c(C)c3)cn(C)c(=O)c2[nH]1` [Compound A30, N-ethyl-4-(1-(4-fluoro-3,5-dimethylphenyl)-1H-imidazo[4,5-b]pyridin-2-yl)-6-methyl-7-oxo-6,7-dihydro-1H-pyrrolo[2,3-c]pyridin-2-carboxamide], the IC50 in experiment [1] was at most 10 nM; in experiment [2], 10 to 100 nM.

For the compound `CCNC(=O)c1cc2c(C(C)c3ccc4ccccc4c3)cn(C)c(=O)c2[nH]1` (centres unmarked) [Compound A25], the values for the IC50 in experiment [1] and in experiment [2] were 10 to 100 nM and 100 to 1000 nM, respectively.

Regarding `Cc1cc(C)cc(-n2c(-c3cn(C)c(=O)c4[nH]c(-c5cnn(C)c5)cc34)nc3ncccc32)c1` [Compound A49, 4-(1-(3,5-dimethylphenyl)-1H-imidazo[4,5-b]pyridin-2-yl)-6-methyl-2-(1-methyl-1H-pyrazol-4-yl)-1,6-di hydro-7H-pyrrolo[2,3-c]pyridin-7-one], the IC50 in experiment [1] is at most 10 nM; in experiment [2] it was 10 to 100 nM.

As for `CCNC(=O)c1cc2c(C(O)c3ccc4c(ccn4C)c3)cn(C)c(=O)c2[nH]1` (centres unmarked) [Compound A39, N-ethyl-4-(hydroxy(1-methyl-1H-indol-5-yl)methyl)-6-methyl-7-oxo-6,7-dihydro-1H-pyrrolo[2,3-c]pyridin-2-carboxamide], the results for the IC50 in experiment [1] and in experiment [2] were 10 to 100 nM and 100 to 1000 nM, respectively.

Regarding `Cc1ccc(C2c3ccccc3C(=O)N2c2cn(C)c(=O)c3[nH]c(C(=O)Nc4cn[nH]c4)cc23)cc1` (centres unmarked) [Compound A55], the results for the IC50 in experiment [1] and in experiment [2] were 10 to 100 nM and 100 to 1000 nM, respectively.

With `CC(c1ccccc1)c1cn(C)c(=O)c2cc(-c3cn(C)nc3[N+](=O)[O-])sc12` (centres unmarked) [Compound A41, 5-methyl-2-(1-methyl-3-nitro-1H-pyrazol-4-yl)-7-(1-phenylethyl)thieno[3,2-c]pyridin-4(5H)-one], the IC50 in experiment [1] and in experiment [2] was 100 to 1000 nM each time.

As for `Cc1ccc(-c2cn(C)nc2-c2cn(C)c(=O)c3[nH]c(C(=O)Nc4cn[nH]c4)cc23)cc1` [Compound A56, 6-methyl-4-(1-methyl-4-(p-tolyl)-1H-pyrazol-3-yl)-7-oxo-N-(1H-pyrazol-4-yl)-6,7-dihydro-1H-pyrrolo[2,3-c]pyridin-2-carboxamide], the IC50 in experiment [1] fell in the range of 10 to 100 nM; in experiment [2] it was 100 to 1000 nM.

On to “4-diphenylmethyl-N-ethylamino-6-methyl-7-oxo-6,7-dihydro-1H-pyrrolo[2,3-c]pyridin-2-carboxamide [Compound A29]”, for which the IC50 in experiment [1] is 10 to 100 nM; in experiment [2] it was 100 to 1000 nM.

For the compound `CC(c1ccc(O)cc1)c1cn(C)c(=O)c2[nH]c(-c3cnn(C4COC4)c3)cc12` (centres unmarked) [Compound A72, 4-(1-(4-hydroxyphenyl)ethyl)-6-methyl-2-(1-(oxetan-3-yl)-1H-pyrazol-4-yl)-1,6-dihydro-7H-pyrrolo[2,3-c]pyridin-7-one], the values for the IC50 in experiment [1] and in experiment [2] were 10 to 100 nM and 100 to 1000 nM, respectively.

Regarding `CC(c1ccccc1)c1cn(C)c(=O)c2cc(-c3cnn(C4COC4)c3)oc12` (centres unmarked) [Compound A59, 5-methyl-2-(1-(oxetan-3-yl)-1H-pyrazol-4-yl)-7-(1-phenethyl)furo[3,2-c]pyridin-4(5H)-one], the IC50 in experiment [1] fell in the range of 10 to 100 nM; in experiment [2] it was 100 to 1000 nM.

As for `CC(c1ccc(Cl)cc1)c1cn(C)c(=O)c2[nH]c(C(=O)Nc3cnn(C)c3)cc12` (centres unmarked) [Compound A64, 4-(1-(4-chlorophenyl)ethyl)-6-methyl-N-(1-methyl-1H-pyrazol-4-yl)-7-oxo-6,7-dihydro-1H-pyrrolo[2,3-c]pyridin-2-carboxamide], the IC50 was in the range of 10 to 100 nM in experiment [1] and 100 to 1000 nM in experiment [2].

Turning to `CC(c1ccccc1)c1cn(C)c(=O)c2cc(-c3cn(C)nc3N)sc12` (centres unmarked) [Compound A42, 2-(3-amino-1-methyl-1H-pyrazol-4-yl)-5-methyl-7-(1-phenylethyl)thieno[3,2-c]pyridin-4(5H)-one], the values for the IC50 in experiment [1] and in experiment [2] were 10 to 100 nM and 100 to 1000 nM, respectively.

Take `CC(c1ccccc1)c1cn(C)c(=O)c2[nH]c(-c3c[nH]cn3)cc12` (centres unmarked) [Compound A47]: the IC50 is at most 10 nM in experiment [1] and 10 to 100 nM in experiment [2].

As usually defined, the IC50 is the concentration at which inhibition is half-maximal. Low values mean greater potency in that assay, high ones weaker potency in that assay.
